This experiment deals with C57B6/J mice. Nature of the experiment: Psilocybin induced head twitch response (HTR) in mice, automated system with implanted ear magnets. It counts as in vivo. The protocol:
Illustrated herein is a dose-dependent decrease in hallucinogenic response (head-twitch response, HTR) to psilocybin administration by adding a PDE9 inhibitor.
In this experiment, it was determined whether the number of head twitches in 10 minutes in response to psilocybin administration in 7-10 week old C57B6/J mice (equal numbers of male and female) were reduced by PF-4447943, a prototypical PDE9 inhibitor. The experiment began with the mice receiving a 20-minute pretreatment with PF-4447943 or its associated vehicle (5% Cremophor, 5% dimethyl sulfoxide (DMSO), and 90% saline) followed by the test dose of psilocybin. Head twitch was assessed for 10 minutes in an automated system using implanted magnets in the mouse's ears. At least one week elapsed prior to reuse, and mice were used maximally twice. […] For instance, average HTR over 10 min in mice receiving 3 mg/kg psilocybin and no PF-4447943 was about 30, while average HTR over 10 min in mice receiving 3 mg/kg psilocybin plus 3 mg/kg PF-4447943 was about 20.
In another experiment, a psilocybin dose-response curve was generated in the presence and absence of a fixed dose of pre-administered PF-4447943. FIG. 2 depicts the results of HTR in mice receiving administration of a fixed dose of PF-4447943 (3 mg/kg IP) and various doses of psilocybin (0, 0.3, 1, 3, 10 mg/kg IP), in comparison with administration of psilocybin plus the PF-4447943 vehicle alone as a control.

`C[C@@H]1CN(Cc2ncccn2)C[C@H]1c1nc2c(cnn2C2CCOCC2)c(=O)[nH]1` [PF-4447943, 6-[(3S,4S)-4-methyl-1-(pyrimidin-2-ylmethyl)pyrrolidin-3-yl]-1-(tetrahydro-2H-pyran-4-yl)-1,5-dihydro-4H-pyrazolo[3,4-d]pyrimidin-4-one]: the “HTR after psilocybin following pretreatment with PF-4447943 compared to pretreatment with the PF-4447943 vehicle” value (20-minute pretreatment, head twitch assessed for 10 minutes, FIG. 1) was “reduced”. Further, the “average HTR over 10 min” value (mice receiving 3 mg/kg psilocybin plus 3 mg/kg PF-4447943 (20-minute pretreatment), FIG. 1) is “about 20”. The “reduction of HTR” value (pretreatment with 3 mg/kg PF-4447943 IP, across all doses of psilocybin (0, 0.3, 1, 3, 10 mg/kg IP) vs psilocybin plus vehicle, FIG. 2) is recorded as “about 40%”.
For `CN(C)CCc1c[nH]c2cccc(OP(=O)(O)O)c12` [psilocybin, [3-[2-(dimethylamino)ethyl]-1H-indol-4-yl]dihydrogen phosphate], the “average HTR over 10 min” value (mice receiving 3 mg/kg psilocybin and no PF-4447943 (vehicle pretreatment), FIG. 1) is “about 30”.

For the origin of these results see patent US20250360137A1, “ENHANCEMENT OF THE EFFICACY OF SEROTONERGIC PSYCHEDELIC DRUGS IN THE TREATMENT OR PREVENTION OF CERTAIN NEUROPSYCHIATRIC DISORDERS THROUGH INHIBITION OF TYPE-9 PHOSPHODIESTERASES” (Freedom Biosciences, Inc., priority 2022, published 2025).
